Our source for the inhibition values is patent publication US8455475B2 (Gruenenthal GmbH, priority 2009, dated 2013).

The target in the assay is T1, rat B1R (bradykinin receptor 1) (Rattus norvegicus, UniProt P97583).
T1 construct: expressed in transfected cells; host or cells: CHO K1 cells
T1 sequence (P97583 1-337): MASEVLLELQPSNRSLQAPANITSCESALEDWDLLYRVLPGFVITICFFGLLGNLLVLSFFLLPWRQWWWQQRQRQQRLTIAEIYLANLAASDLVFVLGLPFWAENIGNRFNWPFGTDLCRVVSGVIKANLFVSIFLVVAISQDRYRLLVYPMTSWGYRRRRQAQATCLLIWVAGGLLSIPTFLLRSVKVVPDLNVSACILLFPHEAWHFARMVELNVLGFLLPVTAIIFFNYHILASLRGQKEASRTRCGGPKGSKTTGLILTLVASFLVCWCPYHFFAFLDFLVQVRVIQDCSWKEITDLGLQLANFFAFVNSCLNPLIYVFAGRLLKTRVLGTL
As to the kind of experiment: FLIPR Ca2+ assay (Fluo-4) on CHO K1 cells stably transfected with the B1R gene of the rat (rB1R cells): % inhibition at 10 μM / IC50, agonist Des-Arg9-bradykinin. The settings on record: CHO-K1, rat B1R. Format: cell-based. In short, it runs like this: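 Antagonism is measured as the drop in peak Fluo-4 Ca2+ signal when the EC80 agonist follows 10–20 min compound exposure. The single-point screen uses 10 μM; IC50 uses several concentrations. Values are given as % of maximal achievable inhibition.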

Regarding `CC(C)CN1CCC2(CC1)CCN(C(=O)c1ccc3c(c1)C(NC(=O)c1cc(C(F)(F)F)ccc1Cl)CC3)CC2` (stereo not shown) [IND_CC-698, 2-Chloro-N-[6-[9-(2-methyl-propyl)-3,9-diazaspiro[5.5]undecane-3-carbonyl]-2,3-dihydro-1H-inden-1-yl]-5-(trifluoromethyl)-benzamide], the inhibition at 10 µM worked out at 90%. With `O=C(c1ccc2c(c1)C(N(C(=O)c1ccccc1Cl)C1CC1)CC2)N1CCC2(CCN(C(=O)C3CC3)CC2)C1` (stereo not shown) [IND_CC-603, 2-Chloro-N-[6-[8-(cyclopropanecarbonyl)-2,8-diazaspiro[4.5]decane-2-carbonyl]-2,3-dihydro-1H-inden-1-yl]-N-cyclopropyl-benzamide] the figure was 75%; with `CC1(C)CC(NC(=O)c2cc(Cl)ccc2C(F)(F)F)c2cc(C(=O)N3CCC4(CC3)CCN(c3ccncc3)CC4)ccc21` (stereo not shown) [IND_CC-315, 5-Chloro-N-[3,3-dimethyl-6-(3-pyridin-4-yl-3,9-diazaspiro[5.5]undecane-9-carbonyl)-1,2-dihydro-inden-1-yl]-2-(trifluoromethyl)-benzamide], 101%; with `O=C(NC1CCc2ccc(C(=O)N3CCC4(CCN(Cc5cccnc5)CC4)CC3)cc21)c1cc(C(F)(F)F)ccc1Cl` (stereo not shown) [IND_CC-642, 2-Chloro-N-[6-[9-(pyridin-3-yl-methyl)-3,9-diazaspiro[5.5]undecane-3-carbonyl]-2,3-dihydro-1H-inden-1-yl]-5-(trifluoromethyl)-benzamide], 77%.

As to `CN(C)c1ncc(CN2CCC3(CC2)CCN(C(=O)c2ccc4c(c2)C(NC(=O)c2cc(C(F)(F)F)ccc2Cl)CC4)C3)cn1` (stereo not shown) [IND_CC-683, 2-Chloro-N-[6-[8-[(2-dimethylamino-pyrimidin-5-yl)-methyl]-2,8-diazaspiro[4.5]-decane-2-carbonyl]-2,3-dihydro-1H-inden-1-yl]-5-(trifluoromethyl)-benzamide], the inhibition at 10 µM turned out to be 62%. Regarding `O=C(NC1CCc2ccc(C(=O)N3CCC4(CCN(Cc5ccc(F)cc5Cl)CC4)CC3)cc21)c1c(F)cccc1Cl` (stereo not shown) [IND_CC-802, 2-Chloro-N-[6-[9-[(2-chloro-4-fluoro-phenyl)-methyl]-3,9-diazaspiro-[5.5]undecane-3-carbonyl]-2,3-dihydro-1H-inden-1-yl]-6-fluoro-benzamide], the inhibition at 10 µM is 89%.

As to `CN(C(=O)c1ccccc1Cl)C1CCc2ccc(C(=O)N3CCC4(CCN(Cc5ccc(F)c(F)c5)CC4)C3)cc21` (stereo not shown) [IND_CC-549, 2-Chloro-N-[6-[8-[(3,4-difluoro-phenyl)-methyl]-2,8-diazaspiro[4.5]decane-2-carbonyl]-2,3-dihydro-1H-inden-1-yl]-N-methyl-benzamide], the inhibition at 10 µM was determined as 60%. Next, `O=C(NC1CCc2ccc(C(=O)N3CCC4(CCN(CCc5ccccc5)CC4)CC3)cc21)c1cccc(Cl)c1Cl` (stereo not shown) [IND_CC-758, 2,3-Dichloro-N-[6-(9-phenethyl-3,9-diazaspiro[5.5]undecane-3-carbonyl)-2,3-dihydro-1H-inden-1-yl]-benzamide]: 86%; `Cc1cccc(Cl)c1C(=O)NC1CCc2ccc(C(=O)N3CCC4(CCN(Cc5ccc6c(c5)nnn6C)CC4)C3)cc21` (stereo not shown) [IND_CC-766, 2-Chloro-6-methyl-N-[6-[8-[(1-methyl-1H-benzotriazol-5-yl)-methyl]-2,8-diazaspiro[4.5]decane-2-carbonyl]-2,3-dihydro-1H-inden-1-yl]-benzamide]: 93%; `O=C(NC1CCc2ccc(C(=O)N3CCC4(CCN(Cc5ccc(F)c(F)c5)CC4)CC3)cc21)c1cc(Cl)ccc1F` (stereo not shown) [IND_CC-628, 5-Chloro-N-[6-[9-[(3,4-difluoro-phenyl)-methyl]-3,9-diazaspiro[5.5]undecane-3-carbonyl]-2,3-dihydro-1H-inden-1-yl]-2-fluoro-benzamide]: 63%.

`O=C(NC1CCc2ccc(C(=O)N3CCC4(CCN(Cc5cc(F)ccc5F)CC4)CC3)cc21)c1c(F)cccc1Cl` (stereo not shown) [IND_CC-790, 2-Chloro-N-[6-[9-[(2,5-difluoro-phenyl)-methyl]-3,9-diazaspiro[5.5]undecane-3-carbonyl]-2,3-dihydro-1H-inden-1-yl]-6-fluoro-benzamide]: the inhibition at 10 µM came to 96%.

Regarding `CN(C(=O)c1ccccc1Cl)C1CCc2ccc(C(=O)N3CCC4(CCN(Cc5cccc(C#N)c5)CC4)C3)cc21` (stereo not shown) [IND_CC-572, 2-Chloro-N-[6-[8-[(3-cyano-phenyl)-methyl]-2,8-diazaspiro[4.5]decane-2-carbonyl]-2,3-dihydro-1H-inden-1-yl]-N-methyl-benzamide], the inhibition at 10 µM is 80%.

Turning to `CCC(CC)CN1CCC2(CC1)CCN(C(=O)c1ccc3c(c1)C(NC(=O)c1c(F)cccc1Cl)CC3)C2` (stereo not shown) [IND_CC-778, 2-Chloro-N-[6-[8-(2-ethyl-butyl)-2,8-diazaspiro[4.5]decane-2-carbonyl]-2,3-dihydro-1H-inden-1-yl]-6-fluoro-benzamide], the inhibition at 10 µM was determined as 105%. With `Cc1nc[nH]c1CN1CCC2(CC1)CCN(C(=O)c1ccc3c(c1)C(NC(=O)c1ccccc1Cl)CC3)CC2` (stereo not shown) [IND_CC-527, 2-Chloro-N-[6-[9-[(5-methyl-3H-imidazol-4-yl)-methyl]-3,9-diazaspiro[5.5]undecane-3-carbonyl]-2,3-dihydro-1H-inden-1-yl]-benzamide] the figure was 98%.

Turning to `O=C(c1ccc2c(c1)C(NS(=O)(=O)Cc1ccccc1F)CC2)N1CCC2(CCN(c3ccncc3)CC2)C1` (stereo not shown) [IND_CC-359, 1-(2-Fluorophenyl)-N-[6-(8-pyridin-4-yl-2,8-diazaspiro[4.5]decane-2-carbonyl)-2,3-dihydro-1H-inden-1-yl]-methanesulfonic acid amide], the inhibition at 10 µM came to 104%. Next, `CN(C1CCc2ccc(C(=O)N3CCC4(CC3)CCN(c3ccncc3)CC4)cc21)S(=O)(=O)Cc1ccccc1F` (stereo not shown) [IND_CC-348, 1-(2-Fluorophenyl)-N-methyl-N-[6-(9-pyridin-4-yl-3,9-diazaspiro[5.5]undecane-3-carbonyl)-2,3-dihydro-1H-inden-1-yl]-methanesulfonic acid amide]: 102%; `CN(C(=O)c1ccccc1Cl)C1CCc2ccc(C(=O)N3CCC4(CCN(C(=O)C5CC5)CC4)C3)cc21` (stereo not shown) [IND_CC-589, 2-Chloro-N-[6-[8-(cyclopropanecarbonyl)-2,8-diazaspiro[4.5]decane-2-carbonyl]-2,3-dihydro-1H-inden-1-yl]-N-methyl-benzamide]: 81%; `O=C(c1ccc2c(c1)C(N(C(=O)c1ccccc1Cl)C1CC1)CC2)N1CCC2(CCN(Cc3ccc(F)c(F)c3)CC2)C1` (stereo not shown) [IND_CC-521, 2-Chloro-N-cyclopropyl-N-[6-[8-[(3,4-difluoro-phenyl)-methyl]-2,8-diazaspiro[4.5]decane-2-carbonyl]-2,3-dihydro-1H-inden-1-yl]-benzamide]: 66%. With `O=C(NC1CCc2ccc(C(=O)N3CCC4(CCN(Cc5ccc6ncccc6c5)CC4)CC3)cc21)c1cccc(Cl)c1Cl` (stereo not shown) [IND_CC-754, 2,3-Dichloro-N-[6-[9-(quinolin-6-yl-methyl)-3,9-diazaspiro[5.5]undecane-3-carbonyl]-2,3-dihydro-1H-inden-1-yl]-benzamide] the figure was 87%; with `Cc1nc(CN2CCC3(CC2)CCN(C(=O)c2ccc4c(c2)C(NC(=O)c2ccccc2Cl)CC4)C3)c[nH]1` (stereo not shown) [IND_CC-554, 2-Chloro-N-[6-[8-[(2-methyl-1H-imidazol-4-yl)-methyl]-2,8-diazaspiro[4.5]decane-2-carbonyl]-2,3-dihydro-1H-inden-1-yl]-benzamide], 73%. With `N#Cc1ccccc1CN1CCC2(CC1)CCN(C(=O)c1ccc3c(c1)C(NC(=O)c1c(F)cccc1Cl)CC3)C2` (stereo not shown) [IND_CC-740, 2-Chloro-N-[6-[8-[(2-cyano-phenyl)-methyl]-2,8-diazaspiro[4.5]decane-2-carbonyl]-2,3-dihydro-1H-inden-1-yl]-6-fluoro-benzamide] the figure was 88%. Consider `O=C(NC1CCc2ccc(C(=O)N3CCC4(CCN(Cc5c(F)cccc5F)CC4)CC3)cc21)c1ccccc1Cl` (stereo not shown) [IND_CC-513, 2-Chloro-N-[6-[9-[(2,6-difluoro-phenyl)-methyl]-3,9-diazaspiro[5.5]undecane-3-carbonyl]-2,3-dihydro-1H-inden-1-yl]-benzamide], for which the inhibition at 10 µM was determined as 98%. With `COc1ccc(CN2CCC3(CC2)CCN(C(=O)c2ccc4c(c2)C(NC(=O)c2cc(Cl)ccc2F)CC4)C3)cc1F` (stereo not shown) [IND_CC-623, 5-Chloro-2-fluoro-N-[6-[8-[(3-fluoro-4-methoxy-phenyl)-methyl]-2,8-diazaspiro[4.5]decane-2-carbonyl]-2,3-dihydro-1H-inden-1-yl]-benzamide] the figure was 59%; with `O=C(NC1CCc2ccc(CC(=O)N3CCC4(CCN(Cc5ccc6nccnc6c5)CC4)C3)cc21)c1ccccc1Cl` (stereo not shown) [IND_CC-805, 2-Chloro-N-[6-[2-oxo-2-[8-(quinoxalin-6-yl-methyl)-3,8-diazaspiro[4.5]decan-3-yl]-ethyl]-2,3-dihydro-1H-inden-1-yl]-benzamide], 51%; with `O=C(c1ccc2c(c1)C(N(C(=O)c1ccccc1Cl)C1CC1)CC2)N1CCC2(CCN(Cc3cccnc3)CC2)C1` (stereo not shown) [IND_CC-518, 2-Chloro-N-cyclopropyl-N-[6-[8-(pyridin-3-yl-methyl)-2,8-diazaspiro[4.5]decane-2-carbonyl]-2,3-dihydro-1H-inden-1-yl]-benzamide], 86%.
